Measurements: US20210221791A1, “COMPOUNDS” (UNIVERSITETET I OSLO, priority 2016, published 2021)
Read-outs that look alike come from different tables or passages of the source. Blank lines part the entries; values can stand above or below the molecule they belong to.

What was measured:
[1] = zinc-binding ability; known/prior art value; cited from earlier work
[2] = tested on: resistant gram-negative MBL-based bacteria; test: MICx: lowest adjuvant concentration giving carbapenem MIC ≤2 mg/L; type: cell-based; conditions: for adjuvant effect at an inhibitor concentration of 25 mg/L: meropenem, K34-7 and K66-45
VIM-2 = VIM-2 (Escherichia coli, UniProt Q5U7L7); type: biochemical; conditions: purified VIM-2, PD-10 column; EDTA at 100 μM
Experimental: The eluent used was Chelex-treated HEPES 50 mM buffer, pH 7.5. […] In all experiments, 16 aliquots of 250 μL were taken from the PD-10 column runsout and enzyme activity was analysed. Enzyme activity was measured by adding Nitrocefin as a reporter substrate (final concentration of 50 μM).
To investigate if more extreme time-dependent and concentration-dependent conditions could restore enzyme activity, aliquots having final concentrations of 30 nM column-treated enzyme and 1000 μM Zn^2+ on ice and at room temperature over prolonged time.

K. pneumoniae K66-45 = type: cell-based; conditions: inhibitor 25 mg/L
Experimental: After plating and grown overnight at 37° C., only single colonies, ignoring any touching the edges of the plate, were counted.
10^9 CFU K66-45 (Mueller-Hinton broth, no selection) was plated and grown overnight, 37° C. Only single colonies, ignoring any touching the edges of the plate, were counted.

[3] = tested on: P. aeruginosa K34-7 (VIM-2); test: Microbroth dilution MIC of carbapenem with/without inhibitor; type: cell-based
Experimental: (§1) • Plate bacterial strain(s) on appropriate media: • Gram-negative bacteria with ESBLs or carbapenemases: green agar plates with 100 mg/L ampicillin • Gram-negative bacteria without β-lactamases: green agar plates • Gram-positive bacteria (Staphylococci and Enterococci): blood agar plates • Incubate o.n. at 37° C.
(§2) (Should be used within 15 min of preparation). • Dilute the 0.5 McFarland suspension 1:100 into MH broth. […] Plate 10 μl of the dilution on MH agar plates (×2). Incubate o.n. at 37° C., count the colonies and calculate the final CFU/ml inoculum in the plate by multiplying the average number of colonies with 10000 and divide by 2. The final inoculum should be between 3-7×10^5 CFU/ml. • Add 50 μl of the prepared bacterial suspension to each well in the microtiter plate except negative growth control.
(§3) • Calculate the desired concentration-range and volume of the compounds/antibiotics in the assay. […] Dilute the stock solution in MH broth. Make subsequent 2-fold dilutions in MH broth of the desired concentrations if a concentration range is to be tested (remember the extra dilution factor in the assay plate). Always include extra volume for pipetting. Take into consideration stock solutions that are made in buffers that have an effect on bacterial growth (e.g. DMSO).

[4] = tested on: resistant clinical isolate of Klebsiella pneumoniae harboring NDM-1; test: Time-kill study with meropenem; type: cell-based; conditions: 4 mg/L meropenem alone; grows beyond starting CFU count
Experimental: Mueller-Hinton broth (MHB) was warmed from fridge temperature cold. […] A sample of Example 26 was dissolved in DMSO.
The 96-well plates were prepared using a multi-channel pipette, adding […] PBS to columns 2-9, or the required number of dilutions needed in the experiment. Each Inoculum was prepared by picking a single colony from the fresh plate that was disperged into 1 mL MHB, the loop was agitated to ensure all the colony comes off the loop. The tube was Vortex mixed, and a 100 μL aliquot was taken from the tube into 9.9 mL of MHB into the media bottle. […] The procedure was repeated for as many samples needed in the study. Aliquots of 5 mL inoculum were transferred to as many media bottles as needed, e.g. 4 mg/L MEM, 4 mg/L MEM+50 μM test substance, 4 mg/L MEM+100 μM test substance. Then […] aliquots were taken from each culture and added to Column 1 on the 96 well plate, e.g. culture 1: 50 μl into A1, […] into B1 etc. for time point 0 h. Then […] MEM was added into each bottle, followed by the required amount of test substance. The bottles were mixed gently to avoid formation of bubbles, and incubated in a secondary container at 37° C. at 180 rpm. Finally, serial dilutions were performed using multi-channel pipette taking 30 μL for column 1, adding to column 2, mixing well, repeating from column 2 to 3 with clean pipette tips.

[5] = tested on: K. pneumoniae K66-45 (NDM-1); test: Microbroth dilution MIC of carbapenem with/without inhibitor; type: cell-based
Experimental: as §1, §2, §3

[6] = tested on: Klebsiella pneumoniae strain 50752501 harbouring NDM-1; test: In vivo infection study in neutropenic mice; set-up: species or system Klebsiella pneumoniae; host NMRI mice; conditions: meropenem alone 33 mg/kg
Experimental: The purpose of this study was to investigate the synergy between a typical example of the present invention and a state of art carbapenem in a clinically relevant multiresistant Gram-negative bacterial strain harboring a metallo-β-lactamase in the treatment of live mice infected with the bacterial strain.
The mice were rendered neutropenic by injecting 0.5 ml cyclophosphamide solution intraperitoneally 4 days (approximately 200 mg/kg) and 1 day (approximately 100 mg/kg) prior to inoculation.
Fresh overnight colonies from a 5% Horse Blood Agar plate were suspended and diluted in sterile saline to approximately and 10^7 CFU/ml. Mice were inoculated intraperitoneally with 0.5 ml of the suspension. Approximately ½ hr prior to inoculation, mice were treated orally with 45 μl neurophen (20 mg ibuprofen/ml corresponding to approximately 30 mg/kg) as a pain relief.
Mice were treated subcutaneously in the neck region with.
Colony counts were determined from blood and peritoneal fluid at 1 and 5 hrs post inoculation. […] The mice were sacrificed immediately after blood sampling and a total of 2 ml sterile saline was injected i.p. and the abdomen gently massaged before it was opened and fluid sampled with a pipette. Each sample was then 10 fold serial diluted in saline and 20-μl spots, ranging from undiluted to a 10^6 dilution, were applied on agar plates in duplicates. […] All agar plates were incubated 18-22 hrs at 35° C. in ambient air.

Compound: c1ccc(CN(Cc2ccccn2)Cc2ccccn2)nc1 [TPA, N,N,N-tris(2-pyridylmethyl) amine]
pKd [1]: about 12

Compound: CN(C[C@H](O)[C@@H](O)[C@H](O)[C@H](O)CO)C(=O)c1ccc(CN(Cc2ccccn2)Cc2ccccn2)s1 [Example 182, 5-((bis(pyridin-2-ylmethyl)amino)methyl)-N-methyl-N-((2S,3R,4R,5R)-2,3,4,5,6-pentahydroxyhexyl)thiophene-2-carboxamide]
adjuvant effect at an inhibitor concentration of 25 mg/L [2]: completely abolishes the adjuvant effect

Compound: O=C(O)CN(CCN(CC(=O)O)CC(=O)O)CC(=O)O [EDTA, ethylenediaminetetra-acetic acid, reference compound]
irreversibility of VIM-2 inhibition (VIM-2): did not inhibit VIM-2 irreversibly

Compound: CN(C[C@H](O)[C@@H](O)[C@H](O)[C@H](O)CO)C(=O)Cc1ccc(NC(=O)CN(CCN(Cc2ccccn2)Cc2ccccn2)Cc2ccccn2)cc1 [Example 25, 2-(4-(2-((2-(bis(pyridin-2-ylmethyl)amino)ethyl)(pyridin-2-ylmethyl)amino)acetamido)phenyl)-N-methyl-N-(2,3,4,5,6-pentahydroxyhexyl)acetamide]
RF - no of colonies (K. pneumoniae K66-45; MEM 2 mg/L): nc (n.c. = no colonies)
RF - no of colonies (K. pneumoniae K66-45; MEM 4 mg/L): nc (n.c. = no colonies)
RF - no of colonies (K. pneumoniae K66-45; MEM 8 mg/L): nc (n.c. = no colonies)

Compound: COC(=O)[C@@H](C)NC(=O)[C@@H](C)NC(=O)Cn1cc(CN(Cc2ccccn2)Cc2ccccn2)nn1 [Example 194, Methyl (2-(4-((bis(pyridin-2-ylmethyl)amino)methyl)1H-1,2,3-triazol-1-yl)acetyl)-D-alanyl-D-alaninate, reference compound]
adjuvant concentration range at which efficient [2]: 100 to 150 µM

MIC of meropenem ([3]; P. aeruginosa K34-7 (VIM-2), inhibitor 50 μM): 1
Compound: OC1O[C@H](Cn2cc(CN(CCN(Cc3ccccn3)Cc3ccccn3)Cc3ccccn3)nn2)[C@H](O)[C@H](O)[C@H]1O (stereo partly shown) [Example 91]

Compound: C[C@@H](O)[C@H]1C(=O)N2C(C(=O)O)=C(S[C@@H]3CN[C@H](C(=O)N(C)C)C3)[C@H](C)[C@H]12 [meropenem, reference compound]
time after which CFU starts to increase [4]: about 5 hours
MIC value in K34-7 (MIC of carbapenem) ([3]; carbapenem alone, P. aeruginosa VIM-2): 32 to 64 µg/mL
MIC ([5]; Klebsiella pneumoniae, read-out: MIC of MEM in the absence of Example 26, K. pneumoniae K66-45): > 32 µg/mL
MIC Value in K66-45 (MIC of carbapenem) ([5]; carbapenem alone, K. pneumoniae NDM-1): 32 to 64 µg/mL
lower CFU levels compared to vehicle treatment ([6]; blood): 2.5 log10
lower CFU levels compared to vehicle treatment ([6]; peritoneal fluid): 2.2 log10

Compound: O=C(Cc1ccc(-n2cc(CN(Cc3ccccn3)Cc3ccccn3)nn2)cc1)N[C@@H](Cc1cccc(C(=O)O)c1)B(O)O [Example 157, (R)-3-(2-(2-(4-(4-((bis(pyridin-2-ylmethyl)amino)methyl)-1H-1,2,3-triazol-1-yl)phenyl)acetamido)-2-boronoethyl)benzoic acid]
adjuvant effect at an inhibitor concentration of 25 mg/L [2]: less activity as an adjuvant

Compound: COC(=O)c1ccc(CN(Cc2ccccn2)Cc2ccccn2)s1 [Example 180, Methyl 5-((bis(pyridin-2-ylmethyl)amino)methyl)thiophene-2-carboxylate]
adjuvant effect at an inhibitor concentration of 25 mg/L [2]: completely abolishes the adjuvant effect

Compound: CN(C[C@H](O)[C@@H](O)[C@H](O)[C@H](O)CO)C(=O)c1ccc(CN(Cc2ccccc2)Cc2ccccn2)nc1 [Example 187, 6-((benzyl(pyridin-2-ylmethyl)amino)methyl)-N-methyl-N-((2S,3R,4R,5R)-2,3,4,5,6-pentahydroxyhexyl)nicotinamide]
adjuvant effect at an inhibitor concentration of 25 mg/L [2]: completely abolishes the adjuvant effect

Compound: CN(C[C@H](O)[C@@H](O)[C@H](O)[C@H](O)CO)C(=O)c1ccc(CN(Cc2ccccc2)Cc2ccccc2)nc1 [Example 185, 6-((dibenzylamino)methyl)-N-methyl-N-((2S,3R,4R,5R)-2,3,4,5,6-pentahydroxyhexyl)nicotinamide]
adjuvant effect at an inhibitor concentration of 25 mg/L [2]: completely abolishes the adjuvant effect

Compound: c1ccc(CNCc2ccccn2)nc1 [DPA, dipicoylamine]
pKd [1]: < 8

Compound: c1ccc(CN(CCN(Cc2ccccn2)Cc2ccccn2)Cc2ccccn2)nc1 [TPEN, N,N,N′,N′-tetrakis(2-pyridylmethyl) ethylenediamine, reference compound]
irreversibility of VIM-2 inhibition (VIM-2): irreversibly inhibited

Compound: O=C(NCCc1ccc(-n2cc(CN(Cc3ccccn3)Cc3ccccn3)nn2)cc1)[C@H]1O[C@H](O)[C@H](O)[C@@H](O)[C@H]1O [Example 101, (2S,3R,4S,5R,6S)—N-(4-(4-((Bis(pyridin-2-ylmethyl)amino)methyl)-1H-1,2,3-triazol-1-yl)phenethyl)-3,4,5,6-tetrahydroxytetrahydro-2H-pyran-2-carboxamide]
adjuvant concentration range at which efficient [2]: 100 to 150 µM
adjuvant effect at an inhibitor concentration of 25 mg/L [2]: less activity as an adjuvant
